The values below are quoted from earlier work in US20150133416A1, “Pharmaceutical Composition Comprising Abiraterone Acetate” (Jagotec AG, priority 2012, published 2015).

Molecules are shown by their SMILES. Where two headings read alike, the source gives them in different places.

Experiment in data set [1]: not given
This is another data set of the same source.

For data set [2] the following is noted: 20 mg delayed release capsules administered with apple sauce.

Turning to `C[C@]12CC[C@H](O)CC1=CC[C@@H]1[C@@H]2CC[C@]2(C)C(c3cccnc3)=CC[C@@H]12` [abiraterone], under “after a high fat meal”, the “AUC elevation compared with the fasted state” value is 10 fold and the “Cmax elevation compared with the fasted state” value is 17 fold. Moreover, under “after a low fat meal”, the “AUC elevation compared with the fasted state” value is reported as 5 fold and the “Cmax elevation compared with the fasted state” value is on record as 7 fold. In addition, in data set [1], the aqueous solubility entry is reported as “poor” and the “log P” value was “very high”.
For the compound `COc1ccc2[nH]c([S+]([O-])Cc3ncc(C)c(OC)c3C)nc2c1` (stereo not shown) [omeprazole], the “reduction in Cmax” value in data set [2] is listed as 25%.
